Test results reported in patent US20110281807A1, “PLANT DISEASE CONTROL AGENT COMPRISING D-TAGATOSE AS ACTIVE INGREDIENT, AND PLANT DISEASE CONTROL METHOD” (NATIONAL UNIVERSITY CORPORATION KAGAWA UNIVERSITY, priority 2008, published 2011).
Where “and” joins values, the source holds several entries; their conditions need not be identical. Equal values may be shown once. Read-outs that look alike come from different tables or passages of the source.

Legend:
[1] = tested on: Pseudoperonospora cubensis; experiment: cucumber downy mildew, field trial; assay type: in vivo; details: for D.D.S (Degree of disease severity), Av / P.V. (Preventive value), Av / n/N × 100, Av: average of plots; for D.D.S (Degree of disease severity) / P.V. (Preventive value) / n/N × 100 / Disease severity 0: number of leaves / Disease severity 1: number of leaves / Disease severity 2: number of leaves / Disease severity 3: number of leaves / Disease severity 4: number of leaves: per plot (a, b); for Disease severity 0: number of leaves / Disease severity 1: number of leaves / Disease severity 2: number of leaves / Disease severity 3: number of leaves / Disease severity 4: number of leaves: 50 leaves
Phytophthora infestans = assay type: in vivo; details: for Preventive value: inoculated 3 days after spraying
Puccinia recondita = experiment: wheat brown rust, field trial
Experimental: Test plants (variety: Nourin 61 gou) were sowed and grown until heading stage. D-Tagatose was diluted to 5% with distilled water and sprayed thoroughly on the plants two times every 8 days. Three days after the first spraying of the dilution, wheat leaves inoculated with wheat fusarium blight (Puccinia recondita) were kept in the test plants. The disease severity of the test plants was observed 21 days after last spraying and the effectiveness of test sample was judged. Tests were carried out in duplicate. One plot of each test was 5 m^2. The disease severity of the test plants was judged in accordance with the following criteria. The preventive value was calculated from the degree of disease severity.

Plasmopara viticola = experiment: vine downy mildew, field test; details: for D.D.S (Degree of disease severity), Av / P.V. (Preventive value), Av / n/N × 100, Av: average of plots
Experimental: Test plants (variety: kyoho) were grown until approximately 10 leaves. […] After the first spraying of the dilution, grape leaves were infected by spraying a sporangium suspension of Plasmopara viticola containing 1×10^3/ml. The disease severity of the test plants was observed 7 days after last spraying, and the effectiveness of test sample was judged. Tests were carried out in triplicate using half of the test plant per each test. The disease severity of the test plants was judged in accordance with the following criteria. The preventive value was calculated from the degree of disease severity.
(§1) 0 (No lesion) 1 (Lesion area was not more than 5% of the leaf area) 2 ((Lesion area was 5%-25% of the leaf area) 3 (Lesion area was 25%-50% of the leaf area) 4 (Lesion area was not less than 50% of the leaf area)

Sphaerotheca fuliginea = experiment: cucumber powdery mildew, field test; details: for D.D.S (Degree of disease severity), Av / P.V. (Preventive value), Av / n/N × 100, Av: average of plots
Experimental: Test plants (cucumber, variety: Ancor) were grown until approximately 10 leaves. […] After the first spraying of the dilution, the test plants were inoculated with condia of suspension of Sphaerotheca fuliginea. The disease severity of the test plants was observed 7 days after the last spraying, and the effectiveness of test sample was judged. Tests were carried out in triplicate using 8 plants per each test. The disease severity of the test plants was judged in accordance with the following criteria. The preventive value was calculated from the degree of disease severity.
as §1

[2] = tested on: Pseudoperonospora cubensis; experiment: cucumber downy mildew, pot test: curative effect
Experimental: Test plants (cucumber, variety: Sagami hanpaku) were seeded and grown until the one true leaf stage. And then a sporangium suspension of Pseudoperonospora cubensis containing 1×10^3/ml were sprayed on the back side of the leaves of test plants for inoculation and then the plants were put for 16 hours in an inoculation chamber (20° C. to 23° C.) to promote disease. For a curative test, the inoculated plants as described above were used.
D-Tagatose was diluted to 5%, 1% and 0.5% with distilled water and then 10 ml of the dilution was sprayed on the test plant. Seven days after the spraying of D-tagatose the disease severity of the test plants was observed and the effectiveness of test sample was judged. Tests were carried out using two plants for each test set and the disease severity of the test plants was judged. The control value was calculated from the degree of disease severity as in Example 1.

Pythium aphanidermatum [3] = details: for Preventive value: 10 ml soil drench, from germination rate after 2 weeks
Experimental: Five seeds of test plants (cucumber, variety: Sagami hanpaku) were sowed in a pot (5×5 cm), which contains infested soil with Pythium aphanidermatum (mycelium 100 g/1 L soil) and the seeds were covered with the soil. […] After 2 weeks, the disease severity of the test plants was observed and the effectiveness of test sample was judged. Tests were carried out in triplicate using 5 plants for each test set and the preventive value was calculated from the germination rate.

Pythium glaminicola = details: for Preventive value: 10 ml soil drench, from percentage of onset area after 2 weeks
Experimental: Four germinated rice seeds (variety: Koshihikari) were sowed in a pot (5×5 cm), which contains infected soil with Pythium glaminicola (mycelium 100 g/1 L soil). The pot was drenched with 10 ml of D-tagatose dilution and the seeds were covered with soil. After 2 weeks, the disease severity of the test plants per rice seedling in 25 cm^2 was observed and the effectiveness of test sample was judged. Tests were carried out in duplicate and the preventive value was calculated from percentage of onset area.

[4] = tested on: Pseudoperonospora cubensis; details: for Preventive value: 5 ml soil drench, inoculated 5 days after drenching
Experimental: Test plants (cucumber, variety: Sagami hanpaku) were seeded and grown until the one true leaf stage. D-Tagatose was diluted to 5% and 1% with distilled water and then 5 ml of the dilution was drenched into the soil of the pot. Five days after drenching, a sporangium suspension of Pseudoperonospora cubensis containing 1×10^3/ml were noculated by spraying on the test plants and then put them for 16 hours in an inoculation chamber (20° C. to 23° C.) to promote disease. Seven days after inoculation the disease severity of the test plants was observed and the effectiveness of test sample was judged. Tests were carried out using two plants for each test set and the disease severity of the test plants was judged. The preventive value was calculated from the degree of disease severity as in Example 1.

Peronospora parasitica = experiment: cabbage downy mildew, pot test: preventive effect; details: for Preventive value: inoculated 3 days after spraying
Experimental: Test plants (cabbage, variety: Shikidori) were seeded and grown until 4 leaves stage. […] Three days after spraying, a suspension containing condia of cucumber downy mildew (Peronospora parasitica) was inoculated by spraying on test plants. Seven days after inoculation the disease severity of the test plants was observed and the effectiveness of test sample was judged. Tests were carried out using two plants for each test set and the disease severity of test plants was judged in accordance with the following criteria. The preventive value was calculated from the degree of disease severity as in Example 1.

[5] = tested on: Pseudoperonospora cubensis; experiment: cucumber downy mildew, pot test: preventive effect; details: for Preventive value (3 DAS): inoculated 3 days after spraying; for Preventive value (5 DAS): inoculated 5 days after spraying
Experimental: Test plants (cucumber, variety: Sagami hanpaku) were seeded and grown until the one true leaf stage. D-Tagatose was diluted to 5%, 1% and 0.5% with distilled water and then 10 ml of the dilution was sprayed on the test plant. Three or five days after spraying, a sporangium suspension of Pseudoperonospora cubensis containing 1×10^3/ml were inoculated by spraying on test plants and then the plants were put for 16 hours in an incubation chamber (20° C. to 23° C.) to promote disease. Seven days after inoculation the disease severity of the test plants was observed and the effectiveness of test sample was judged. Tests were carried out using two plants for each test set and the disease severity of the test plants was judged in accordance with the following criteria. The preventive value was calculated from the degree of the disease severity.
(§2) 0 (No lesion) 1 (Lesion area was not more than 40%) 2 ((Lesion area was 40%-80%) 3 (Lesion area was not less than 80%)
Preventive value=100{1−(n/N)} N=disease severity of untreated leaf, n=disease severity of the tested leaf

Sphaerotheca fuligine = experiment: cucumber powdery mildew, pot test: preventive effect; details: for Preventive value: inoculated 3 days after spraying
Experimental: Test plants (cucumber, variety: Sagami-hanpaku) were seeded and grown until the one true leaf stage. D-tagatose was diluted to 5% and 1% with distilled water and then 10 ml of the dilution was sprayed on the test plant. Three days after spraying, a condia suspension of Sphaerotheca fuligine was inoculated by spraying on test plants. Seven days after inoculation the disease severity of the test plants was observed and the effectiveness of test sample was judged. Tests were carried out using two plants for each test set and the disease severity of the test plants was judged in accordance with the following criteria.

Pythium aphanidermatum [6] = experiment: cucumber damping-off, pot test: soil drench of D-tagatose combined with fungicides; details: Pythium aphanidermatum, in Cucumis sativus, soil, 336 h, read-out: Preventive value
Experimental: Five seeds of test plants (cucumber, variety: Sagami hanpaku) were sowed in a pot (5×5 cm), which contains infested soil with Pythium aphanidermatum (mycelium 100 g/1 L soil) and was covered with soil. D-Tagatose was diluted to 5000 ppm and the fungicides were diluted to the concentrations listed in table 18, with distilled water. The pot was drenched with 10 ml of the dilution. After 2 weeks, the disease severity of the test plants was observed and the effectiveness of test sample was judged. Tests were carried out in triplicate using 5 plants for each test set and the preventive value was calculated from the germination rate.

[7] = tested on: Pseudoperonospora cubensis; details: Pseudoperonospora cubensis, in Cucumis sativus, 168 h, read-out: Preventive value
Experimental: Test plants (cucumber, variety: Sagami hanpaku) were seeded and grown until the one true leaf stage. And then, a sporangium suspension of Pseudoperonospora cubensis containing 1×10^3/ml were spraying for inoculation on the back side of the leaves of test plants and then put for 16 hours in an inoculation chamber (20° C. to 23° C.) to promote disease. For a curative test, the inoculated plants as described above were used.
D-Tagatose was diluted to 5000 ppm and the fungicides were diluted to the concentrations listed in table 15, with distilled water, and 10 ml of the dilution was sprayed. Seven days after inoculation the disease severity of the test plants was observed and the effectiveness of test sample was judged.

[8] = tested on: Pseudoperonospora cubensis; details: Pseudoperonospora cubensis, in Cucumis sativus, 168 h, read-out: Preventive value; remark: listed apart in the source
Experimental: Test plants (cucumber, variety: Sagami hanpaku) were seeded and grown until the one true leaf stage. D-Tagatose was diluted to 5000 ppm and the fungicides were diluted to the concentrations listed in table 14, with distilled water. And then 10 ml of the dilution was sprayed on the test plant. Three days after spraying of the solution, a sporangium suspension of Pseudoperonospora cubensis containing 1×10^3/ml were inoculated by spraying on test plants and then put for 16 hours in an inoculation chamber (20° C. to 23° C.) to promote disease. Seven days after inoculation the disease severity of the test plants was observed and the effectiveness of the test sample was judged. Tests were carried out using two plants for each test set and the disease severity of the test plants was judged in accordance with the following criteria. The preventive value was calculated from the degree of disease severity.
as §2
Preventive value=100{1−(n/N)} N=disease severity of untreated leaf, n=disease severity of the test leaf Synergistic effect was determined by Colby's equation.

[9] = tested on: Erysiphe graminis f.sp. hordei; details: Blumeria graminis, in Hordeum vulgare, 168 h, read-out: Preventive value
Experimental: Test plants (barley, variety: Akashinriki) were seeded and grown until the one leaf stage. D-tagatose and fungicide were diluted to 5000 ppm and the concentrations listed in table 21, respectively, with distilled water and 10 ml of the dilution was sprayed thoroughly on the plants. Three days after spraying, a condia suspension of Erysiphe graminis f.sp. hordei was inoculated by spraying on test plants. 7 days after inoculation the disease severity of the test plants was observed and the effectiveness of test sample was judged.

[10] = tested on: Pseudoperonospora cubensis; details: alone
Experimental: Test plants (cucumber, variety: Sagami hanpaku) were seeded and grown until the one true leaf stage. D-tagatose alone was diluted to 5%, 1%, 0.5% and 0.1%, and the combination of D-tagatose and other saccharide were diluted to be 0.5% and 0.5% solution respectively with distilled water, and then 10 ml of the dilution was sprayed on the test plant. Three days after spraying of the solution, a sporangium suspension of Pseudoperonospora cubensis containing 1×10^3/ml were inoculated by spraying on test plants and then put them for 16 hours in an inoculation chamber (20° C. to 23° C.) to promote disease. Seven days after inoculation the disease severity of the test plants was observed and the effectiveness of test sample was judged. Tests were carried out using two plants for each test set and the disease severity of the test plants was judged in accordance with the following criteria. The preventive value was calculated from the degree of disease severity as in example 1.
Synergistic effect was determined by the Colby's equation below.
X is the observed effect, in percentage, of the first active ingredient and, and Y is the observed effect, in percentage, of the second active ingredient. E is the effect, in percentage, of the mixture expected from additive contribution of the individual components.

[11] = 50000 ppm, per plot (1, 2), 100 leaves
[12] = 10000 ppm, per plot (1-3), 50 leaves
[13] = 50000 ppm, per plot (1-3), 50 leaves
[14] = 10000 ppm, per plot (1, 2), 50 leaves
[15] = 50000 ppm, per plot (1, 2), 50 leaves
[16] = 50000 ppm spray, listed as D-tagatose

Compound: O=C(CO)[C@@H](O)[C@@H](O)[C@H](O)CO [D-Tagatose, D-tagatose]
- D.D.S (Degree of disease severity), Av ([1]; 10000 ppm): 2.25
- P.V. (Preventive value), Av ([1]; 10000 ppm): 96.5
- n/N × 100, Av ([1]; 10000 ppm): 9.0
- D.D.S (Degree of disease severity) ([1]; 10000 ppm): 3.00 and 1.50
- P.V. (Preventive value) ([1]; 10000 ppm): 95.4 and 97.7
- n/N × 100 ([1]; 10000 ppm): 12.0 and 6.0
- Disease severity 0: number of leaves ([1]; 10000 ppm): 44 and 47
- Disease severity 1: number of leaves ([1]; 10000 ppm): 6 and 3
- Disease severity 2: number of leaves ([1]; 10000 ppm): 0
- Disease severity 3: number of leaves ([1]; 10000 ppm): 0
- Disease severity 4: number of leaves ([1]; 10000 ppm): 0
- D.D.S (Degree of disease severity), Av ([1]; 50000 ppm): 2.50
- P.V. (Preventive value), Av ([1]; 50000 ppm): 96.1
- n/N × 100, Av ([1]; 50000 ppm): 10.0
- D.D.S (Degree of disease severity) ([1]; 50000 ppm): 3.00 and 2.00
- P.V. (Preventive value) ([1]; 50000 ppm): 95.4 and 96.9
- n/N × 100 ([1]; 50000 ppm): 12.0 and 8.0
- Disease severity 0: number of leaves ([1]; 50000 ppm): 44 and 46
- Disease severity 1: number of leaves ([1]; 50000 ppm): 6 and 4
- Disease severity 2: number of leaves ([1]; 50000 ppm): 0
- Disease severity 3: number of leaves ([1]; 50000 ppm): 0
- Disease severity 4: number of leaves ([1]; 50000 ppm): 0
- effectiveness in words ([1]; field test): effective enough
- Preventive value (Phytophthora infestans; 50000 ppm spray): 28.3
- Preventive value (Phytophthora infestans; 100000 ppm spray): 58.3
- effectiveness in words (Phytophthora infestans; foliar spray): effective enough
- D.D.S (Degree of disease severity), Av (Puccinia recondita; 50000 ppm, average of plots): 6.1
- D.D.S (Degree of disease severity) (Puccinia recondita; 50000 ppm, per plot (1, 2)): 4.7 and 7.5
- Leaves number(n) of disease severity 0 (Puccinia recondita; [11]): 76 and 68
- Leaves number(n) of disease severity 1 (Puccinia recondita; [11]): 22 and 25
- Leaves number(n) of disease severity 4 (Puccinia recondita; [11]): 0
- Leaves number(n) of disease severity 5 (Puccinia recondita; [11]): 0
- Leaves number(n) of disease severity 6 (Puccinia recondita; [11]): 0
- P.V. (Preventive value), Av (Puccinia recondita; 50000 ppm, sprayed two times every 8 days, rated 21 days after last spraying): 92.5
- effectiveness in words (Puccinia recondita; field trial): effective enough
- D.D.S (Degree of disease severity), Av (Plasmopara viticola; 10000 ppm): 12.75
- P.V. (Preventive value), Av (Plasmopara viticola; 10000 ppm): 71.7
- n/N × 100, Av (Plasmopara viticola; 10000 ppm): 31.0
- D.D.S (Degree of disease severity) (Plasmopara viticola; 10000 ppm, per plot (1-3)): 14.50 and 18.50 and 11.00
- P.V. (Preventive value) (Plasmopara viticola; 10000 ppm, per plot (1-3)): 72.0 and 64.3 and 78.7
- n/N × 100 (Plasmopara viticola; 10000 ppm, per plot (1-3)): 36.0 and 32.0 and 26.0
- Disease severity 0: number of leaves (Plasmopara viticola; [12]): 32 and 34 and 37
- Disease severity 1: number of leaves (Plasmopara viticola; [12]): 8 and 4
- D.D.S (Degree of disease severity), Av (Plasmopara viticola; 50000 ppm): 0.00
- P.V. (Preventive value), Av (Plasmopara viticola; 50000 ppm): 99.4
- n/N × 100, Av (Plasmopara viticola; 50000 ppm): 0.0
- P.V. (Preventive value) (Plasmopara viticola; 50000 ppm, per plot (1-3)): 100.0 and 93.1
- Disease severity 0: number of leaves (Plasmopara viticola; [13]): 50 and 48
- Disease severity 2: number of leaves (Plasmopara viticola; [13]): 0
- Disease severity 3: number of leaves (Plasmopara viticola; [13]): 0
- Disease severity 4: number of leaves (Plasmopara viticola; [13]): 0
- effectiveness in words (Plasmopara viticola; field test): effective enough
- D.D.S (Degree of disease severity), Av (Sphaerotheca fuliginea; 10000 ppm): 5.75
- P.V. (Preventive value), Av (Sphaerotheca fuliginea; 10000 ppm): 94.0
- n/N × 100, Av (Sphaerotheca fuliginea; 10000 ppm): 15.0
- D.D.S (Degree of disease severity) (Sphaerotheca fuliginea; 10000 ppm, per plot (1, 2)): 8.00
- P.V. (Preventive value) (Sphaerotheca fuliginea; 10000 ppm, per plot (1, 2)): 96.4 and 91.7
- Disease severity 0: number of leaves (Sphaerotheca fuliginea; [14]): 46 and 39
- Disease severity 3: number of leaves (Sphaerotheca fuliginea; [14]): 1
- Disease severity 4: number of leaves (Sphaerotheca fuliginea; [14]): 0
- D.D.S (Degree of disease severity), Av (Sphaerotheca fuliginea; 50000 ppm): 1.25
- P.V. (Preventive value), Av (Sphaerotheca fuliginea; 50000 ppm): 98.7
- n/N × 100, Av (Sphaerotheca fuliginea; 50000 ppm): 5.0
- D.D.S (Degree of disease severity) (Sphaerotheca fuliginea; 50000 ppm, per plot (1, 2)): 1.00 and 1.50
- P.V. (Preventive value) (Sphaerotheca fuliginea; 50000 ppm, per plot (1, 2)): 99.0 and 98.4
- n/N × 100 (Sphaerotheca fuliginea; 50000 ppm, per plot (1, 2)): 4.0 and 6.0
- Disease severity 0: number of leaves (Sphaerotheca fuliginea; [15]): 48 and 47
- Disease severity 1: number of leaves (Sphaerotheca fuliginea; [15]): 2 and 3
- Disease severity 2: number of leaves (Sphaerotheca fuliginea; [15]): 0
- Disease severity 3: number of leaves (Sphaerotheca fuliginea; [15]): 0
- Disease severity 4: number of leaves (Sphaerotheca fuliginea; [15]): 0
- effectiveness in words (Sphaerotheca fuliginea; field test): effective enough
- Preventive value (control value) ([2]; 5000 ppm sprayed after inoculation (curative)): 22.5
- Preventive value (control value) ([2]; 10000 ppm sprayed after inoculation (curative)): 91.7
- Preventive value (control value) ([2]; 50000 ppm sprayed after inoculation (curative)): 100.0
- Preventive value (control value) ([2]; 50000 ppm sprayed after inoculation (curative), listed as D-tagatose): 100
- effectiveness in words ([2]; curative test condition): effective enough
- Preventive value (Pythium aphanidermatum [3]; 10000 ppm): 70.0
- Preventive value (Pythium aphanidermatum [3]; 50000 ppm): 92.5
- effectiveness in words (Pythium aphanidermatum [3]; soil drench): effective enough
- Preventive value (Pythium glaminicola; 10000 ppm): 77.3
- Preventive value (Pythium glaminicola; 50000 ppm): 96.2
- effectiveness in words (Pythium glaminicola; soil drench): effective enough
- Preventive value ([4]; 10000 ppm): 95.0
- Preventive value ([4]; 10000 ppm, listed as D-tagatose): 95
- Preventive value ([4]; 50000 ppm): 100.0
- Preventive value ([4]; 50000 ppm, listed as D-tagatose): 100
- effectiveness in words ([4]; drench treatment): effective enough
- Preventive value (Peronospora parasitica; 10000 ppm spray): 90.1
- Preventive value (Peronospora parasitica; 50000 ppm spray): 95.1
- effectiveness in words (Peronospora parasitica; foliar spray): effective enough
- Preventive value (3 DAS) ([5]; 5000 ppm spray): 49.2
- Preventive value (5 DAS) ([5]; 5000 ppm spray): 37.5
- Preventive value (3 DAS) ([5]; 10000 ppm spray): 99.2
- Preventive value (5 DAS) ([5]; 10000 ppm spray): 90.0
- Preventive value (5 DAS) ([5]; 10000 ppm spray, listed as D-tagatose): 90
- Preventive value (3 DAS) ([5]; 50000 ppm spray): 100.0
- Preventive value (3 DAS) [5, 16]: 100
- Preventive value (5 DAS) ([5]; 50000 ppm spray): 100.0
- Preventive value (5 DAS) [5, 16]: 100
- Preventive value (Sphaerotheca fuligine; 10000 ppm spray): 20.0
- Preventive value (Sphaerotheca fuligine; 50000 ppm spray): 87.5
- effectiveness in words (Sphaerotheca fuligine; foliar spray): effective enough
- pest or weed control at 5000 ppm (Pythium aphanidermatum [6]): 33%
- pest or weed control at 10000 ppm (Pythium aphanidermatum [6]): 83%
- pest or weed control at 5000 ppm [7]: 33%
- pest or weed control at 10000 ppm [7]: 73%
- pest or weed control at 5000 ppm [8]: 40%
- pest or weed control at 10000 ppm [8]: 83%
- pest or weed control at 5000 ppm [9]: 50%
- pest or weed control at 10000 ppm [9]: 73%
- Preventive value ([10]; 1000 ppm): 0.0
- Preventive value ([10]; 5000 ppm): 8.3
- Preventive value ([10]; 10000 ppm): 98.3
- Preventive value ([10]; 50000 ppm): 100.0
